Consider 16 compounds from US20150299218A1, “Heterocyclic Compounds As Inhibitors Of The Sodium Iodide Symporter” (COMMISSARIAT A L'ENERGIE ATOMIQUE ET AUX ENERGIES …, priority 2012, published 2015).

The structures appear in SMILES notation. pIC50: −log10 of the molar value.

The pIC50 is the negative decadic logarithm of the IC50, by convention in mol/L.

The first data set deals with T1, sodium iodide symporter (NIS) (Rattus norvegicus, UniProt Q63008).
T1 construct: endogenous in cells; host or cells: FRTL5 (rat thyroid-derived cells)
T1 sequence (Q63008 1-618): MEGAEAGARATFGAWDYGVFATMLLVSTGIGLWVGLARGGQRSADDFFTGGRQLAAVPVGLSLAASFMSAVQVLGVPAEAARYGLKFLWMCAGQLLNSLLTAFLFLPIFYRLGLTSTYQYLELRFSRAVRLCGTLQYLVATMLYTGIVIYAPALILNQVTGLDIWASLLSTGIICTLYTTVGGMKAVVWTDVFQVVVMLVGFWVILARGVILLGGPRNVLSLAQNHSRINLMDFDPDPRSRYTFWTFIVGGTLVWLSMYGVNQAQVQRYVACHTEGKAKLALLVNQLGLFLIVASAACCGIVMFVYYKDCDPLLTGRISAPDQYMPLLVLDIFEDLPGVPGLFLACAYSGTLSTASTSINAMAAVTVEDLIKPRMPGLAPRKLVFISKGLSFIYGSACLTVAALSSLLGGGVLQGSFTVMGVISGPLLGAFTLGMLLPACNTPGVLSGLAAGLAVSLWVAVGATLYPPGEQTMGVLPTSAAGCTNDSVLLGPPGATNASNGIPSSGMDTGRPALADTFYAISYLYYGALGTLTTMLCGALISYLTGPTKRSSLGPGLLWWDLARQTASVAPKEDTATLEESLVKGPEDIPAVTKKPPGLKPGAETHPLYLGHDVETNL
The experiment in a line: radioiodide uptake assay in FRTL5 cells (24-well plate). Type of data set: cell-based. The settings on record: 60 min, NaI 10 μM, averaged from two to four independent experiments, read-out: IC50 against iodide uptake in FRTL5 cells. As to the method: In the framework of the invention, the NIS inhibitor is evaluated as follow: rat thyroid-derived cells (FRTL5 cells expressing NIS) are incubated during 1 h with iode and 125-I as a tracer, and in the presence of various concentration of compound. For each tested concentration of compound, the amount of iodide inside the cells is quantified by radioactive counting. The half-maximum inhibitory concentration (IC50) is evaluated for each compound by regression analysis (to the Hill equation) from dose-response data. A detailed protocol is provided in the experimental section, and also in N. Lecat-Guillet et al., ChemMedChem, 2008.
The synthesized compounds were evaluated for their ability to inhibit iodide entrapment in FRTL5 cells using a rodiodide uptake assay. The IC50 values were measured in at least two independent experiments.
The biological activity of each compound was determined in FRTL5 cells, using a 24-well plate format radioiodide uptake assay. Each experiment was run in quadruplicate and at least twice independently. Compound potency was expressed as IC50, the concentration of compound necessary to achieve 50% inhibition of iodide uptake. NaClO4 and the Compound 2 were tested as assay controls.
FRTL5 cells were cultured in Coon's modified F12 medium supplemented with 5% heat-inactivated fetal bovine serum (Invitrogen), 2 mM L-glutamine, 100 U/mL penicillin, 0.1 mg/mL streptomycin, 10 μg/mL insulin, 10 nM hydrocortisone, 10 ng/mL Gly-His-Lys acetate, 1 mU/mL TSH, 5 μg/mL transferrin at 37° C. and 5% CO2. For iodide uptake assays, 1.25 mL of FRTL5 cells with density of 250,000 cells/mL were dispensed in each well of clear flat-bottomed 24-well polystyrene microplates (BD Falcon 3047), and further cultured until confluence reached 70-90% (3-4 days).
Prepare ˜1.5 mL/plate of an intermediate “10-fold” radioiodide uptake buffer solution: NaI (100 μM) and [125-I]-NaI (20 μCi/mL) in uptake buffer (HBSS/Hepes).
For each concentration of compound tested, prepare ˜2.5 mL of compound solutions in uptake buffer (HBSS/Hepes 10 mM) at 1.12 fold the final concentration, so that 450 μL of this solution plus 50 μL of radioiodide uptake buffer makes the desired final concentration (NaI 10 μM final, 1 μCi/well).
The procedure is performed at 20±2° C. in a well ventilated hood. Culture medium of FRTL5 cells is removed by aspiration. Compound solutions are added to the 24-well plate in quadruplicate (450 μL/well) immediately followed by [125I]-NaI radioiodide uptake buffer (50 μL/well, 10 μM final, 1 μCi/well). The 24-well plate is left to stand for 60 min. Radioactive supernatants are removed by aspiration and the cell are washed twice with 500 μL of cold uptake buffer (HBSS/Hepes at 4° C.). Finally, the residual supernatant is removed by aspiration and 500 μL of lysis buffer (SDS 0.1%, triton 0.5%) is added to each well. The 24-well plate is gently agitated for 60-120 min. The radioactive cell lysates are collected and placed into scintillation vials. Scintillation cocktail (Ultima gold LLT, Perkin Elmer) is added to each vial (4 mL) and the radioactivity is measured (Wallac 1409). For IC50 determination, mean DPM values were fitted by non-linear regression (least square) to the four-parameter sigmoidal Hill equation.
IC50 values are averaged from two to four independent experiments. A standard deviation of 2-fold was judged acceptable. NaClO4 and Compound 2 were tested as assay controls.
As for `O=[N+]([O-])c1cccc(C2OCCc3c2[nH]c2ccccc32)c1` (stereo not shown) [Compound 4, 1-(3-nitrophenyl)-1,3,4,9-tetrahydropyrano[3,4-b]indole], the pIC50 was 8.28.
Consider `O=[N+]([O-])c1cccc(C2NCCc3c2oc2ccccc32)c1` (stereo not shown) [Compound 5, 1-(3-nitrophenyl)-1,2,3,4-tetrahydro[1]benzofuro[2,3-c]pyridine], for which the pIC50 was 6.70.
For the compound `O=[N+]([O-])c1cccc(C2SCCc3c2[nH]c2ccccc32)c1` (stereo not shown) [Compound 6, 1-(3-nitrophenyl)-1,3,4,9-tetrahydrathiopyrano[3,4-b]indole], the pIC50 was 6.85.
In the case of `Fc1ccc(F)c(C2OCCc3c2[nH]c2ccccc32)c1` (stereo not shown) [Compound 7, 1-(2,5-difluorophenyl)-1,3,4,9-tetrahydropyrano[3,4-b]indole], the negative logarithm of the IC50 (pIC50) was 6.77.
As for `c1cc2c(c(C3OCCc4c3[nH]c3ccccc43)c1)OCO2` (stereo not shown) [Compound 8, 1-(benzo[d][1,3]dioxol-4-yl)-1,3,4,9-tetrahydropyrano[3,4-b]indole], the negative-log IC50 (pIC50) is 9.39.
Still for that read-out and setting: under `Clc1cccc(C2OCCc3c2[nH]c2ccccc32)c1` (stereo not shown) [Compound 9, 1-(3-chlorophenyl)-1,3,4,9-tetrahydropyrano[3,4-b]indole] stands 6.85.
In the case of `COc1ccc(F)c(C2OCCc3c2[nH]c2ccccc32)c1` (stereo not shown) [Compound 10, 1-(2-fluoro-5-methoxyphenyl)-1,3,4,9-tetrahydropyrano[3,4-b]indole], the pIC50 was 7.24.
With `Brc1cccc(C2OCCc3c2[nH]c2ccccc32)c1` (stereo not shown) [Compound 11, 1-(3-bromophenyl)-1,3,4,9-tetrahydropyrano[3,4-b]indole], the pIC50 was 6.77.
With `Fc1ccc(C2OCCc3c2[nH]c2ccccc32)cc1Cl` (stereo not shown) [Compound 12, 1-(3-chloro-4-fluorophenyl)-1,3,4,9-tetrahydropyrano[3,4-b]indole], the pIC50 is 6.70.
As to `Nc1cccc(C2OCCc3c2[nH]c2ccccc32)c1` (stereo not shown) [Compound 13, 1-(3-aminophenyl)-1,3,4,9-tetrahydropyrano[3,4-b]indole], the pIC50 was 8.96.

The target in a further data set is T1, sodium iodide symporter (NIS).
Experiment: not given
The settings on record: rat thyroid-derived cells (FRTL5); F. Waltz et al. 2010; read-out: IC50 competitive inhibition of iodide transport in FRTL5; cited from earlier work.
Turning to `F[B-](F)(F)F` [BF4^−], the negative logarithm of the IC50 (pIC50) is 6.12.
As for `[O-][Cl+3]([O-])([O-])O` [ClO4^−], the pIC50 was 6.85.
Take `O=[N+]([O-])O` [NO3^−]: the negative logarithm of the IC50 (pIC50) was 3.60.
As to `F[P-](F)(F)(F)(F)F` [PF6^−], the negative-log IC50 (pIC50) is 8.05.

Test system in a further data set: not given
Experiment: not given
To be noted: concentration up to 200 μM; cited from earlier work.
`Brc1cccc(C2NCCc3c2[nH]c2ccccc32)c1` (stereo not shown) [Compound 1]: the cytotoxicity entry was “not cytotoxic”.
Consider `O=[N+]([O-])c1cccc(C2NCCc3c2[nH]c2ccccc32)c1` (stereo not shown) [Compound 2], for which the cytotoxicity result was “not cytotoxic”.
